Data from US8653100B2 (AbbVie Inc., priority 2008, dated 2014).
Where a name gives a salt, the structure may show the parent alone. Read-outs that look alike come from different tables or passages of the source.

Experiments:
human GlyT1c = human GlyT1c (Homo sapiens (Human), UniProt P48067); assay: [3H]-Glycine uptake into recombinant CHO cells expressing human GlyT1; type: cell-based; settings: hGlyT1c_5_CHO cells, 200 nM [3H]-glycine
Method: [^3H]-Glycine uptake into recombinant CHO cells expressing human GlyT1: Human GlyT1c expressing recombinant hGlyT1c—5_CHO cells were plated at 20,000 cells per well in 96 well Cytostar-T scintillation microplates (Amersham Biosciences) and cultured to sub-confluency for 24 h. […] The plates were placed in a Wallac Microbeta (PerkinElmer) and continuously counted by solid phase scintillation spectrometry during up to 3 hours. […] IC50 calculations were made by four-parametric logistic nonlinear regression analysis (GraphPad Prism) using determinations within the range of linear increase of [^3H]-glycine incorporation between 60 and 120 min.

human GlyT1c transporter = human GlyT1c transporter (Homo sapiens (Human), UniProt P48067); assay: Radioligand binding assay using recombinant CHO cell membranes expressing human GlyT1; settings: read-out: radioligand binding Kiapp
Chain of human GlyT1c transporter (P48067 whole entry): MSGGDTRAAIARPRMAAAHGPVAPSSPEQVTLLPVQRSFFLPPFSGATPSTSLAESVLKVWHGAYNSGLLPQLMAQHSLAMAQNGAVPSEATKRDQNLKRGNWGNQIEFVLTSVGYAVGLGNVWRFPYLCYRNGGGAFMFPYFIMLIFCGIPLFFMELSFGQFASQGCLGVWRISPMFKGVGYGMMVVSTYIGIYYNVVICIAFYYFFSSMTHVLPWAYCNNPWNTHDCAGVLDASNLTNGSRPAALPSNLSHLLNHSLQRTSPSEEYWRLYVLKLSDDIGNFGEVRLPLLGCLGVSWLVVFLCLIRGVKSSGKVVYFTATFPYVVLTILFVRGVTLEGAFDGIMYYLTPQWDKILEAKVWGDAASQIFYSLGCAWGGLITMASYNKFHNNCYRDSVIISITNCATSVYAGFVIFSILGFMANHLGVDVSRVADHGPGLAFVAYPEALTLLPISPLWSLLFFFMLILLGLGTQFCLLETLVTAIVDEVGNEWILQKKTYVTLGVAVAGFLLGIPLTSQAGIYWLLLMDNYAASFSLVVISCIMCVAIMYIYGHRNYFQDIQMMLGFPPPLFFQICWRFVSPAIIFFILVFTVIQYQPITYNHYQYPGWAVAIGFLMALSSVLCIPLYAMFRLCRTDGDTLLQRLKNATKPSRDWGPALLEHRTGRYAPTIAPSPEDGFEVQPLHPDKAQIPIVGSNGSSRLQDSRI
In short: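 Competition binding of [^3H]-(R)-NPTS (0.5 nM) to CHO membranes expressing human GlyT1c (50 μg/ml protein) in pH 7.5 Hepes/NaCl buffer with 1% DMSO, 1 h at room temperature. Non-specific binding defined with 10 μM Org24598; filtration and scintillation counting, one-site fit, Ki via Cheng-Prusoff.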

[1] = radioligand [3H]-(R)-NPTS (examples 1-19, 22-52, 54-87)

Chain of human GlyT1c (P48067 whole entry): as above

SMILES | IC50 (human GlyT1c) | Ki (human GlyT1c transporter; examples 88-204, radioligand not specified by footnote) | Ki (human GlyT1c transporter; [1]) | IC50 (human GlyT1c; hydrochloride)
NCCS(=O)(=O)NCCOc1ccc2c(c1)C(C1(c3ccc(Cl)cc3)CCC1)NCC2 (single isomer, unassigned) [Example 152, 2-Amino-N-[2-({1-[1-(4-Chlorophenyl)cyclobutyl]-1,2,3,4-tetrahydroisoquinolin-7-yl}oxy)ethyl]ethanesulfonamide dihydrochloride] | ≤ 10000 nM | ≤ 100 nM |  | 
O=C(NCCOc1ccc2c(c1)C(C1(c3ccc(Cl)cc3)CCC1)NCC2)c1ccc(Cl)cc1Cl (stereo not shown) [Example 1, 2,4-Dichloro-N-(2-{1-[1-(4-chloro-phenyl)-cyclobutyl]-1,2,3,4-tetrahydro-isoquinolin-7-yloxy}-ethyl)-benzamide] | ≤ 10000 nM |  | ≤ 10000 nM | 
CS(=O)(=O)NCCOc1ccc2c(c1)C(C1(c3ccc(Cl)cc3)CCC1)NCC2 (stereo not shown) [Example 2, N-(2-{1-[1-(4-Chloro-phenyl)-cyclobutyl]-1,2,3,4-tetrahydro-isoquinolin-7-yloxy}-ethyl)-methanesulfonamide] | ≤ 100 nM |  | ≤ 100 nM | 
CCCS(=O)(=O)NCCOc1ccc2c(c1)C(C1(c3ccc(Cl)cc3)CCC1)NCC2 (stereo not shown) [Example 4, Propane-1-sulfonic acid (2-{1-[1-(4-chloro-phenyl)-cyclobutyl]-1,2,3,4-tetrahydro-isoquinolin-7-yloxy}-ethyl)-amide hydrochloride] | ≤ 100 nM |  | ≤ 100 nM | 
CCS(=O)(=O)NCCOc1ccc2c(c1)C(C1(c3ccc(Cl)cc3)CCC1)NCC2 (stereo not shown) [Example 7, Ethanesulfonic acid (2-{1-[1-(4-chloro-phenyl)-cyclobutyl]-1,2,3,4-tetrahydro-isoquinolin-7-yloxy}-ethyl)-amide hydrochloride] | ≤ 100 nM |  | ≤ 100 nM | 
CC(C)CS(=O)(=O)NCCOc1ccc2c(c1)C(C1(c3ccc(Cl)cc3)CCC1)NCC2 (stereo not shown) [Example 8, 2-Methyl-propane-1-sulfonic acid (2-{1-[1-(4-chloro-phenyl)-cyclobutyl]-1,2,3,4-tetrahydro-isoquinolin-7-yloxy}-ethyl)-amide hydrochloride] | ≤ 100 nM |  | ≤ 100 nM | 
O=S(=O)(NCCOc1ccc2c(c1)C(C1(c3ccc(Cl)cc3)CCC1)NCC2)c1ccc2ccccc2c1 (stereo not shown) [Example 9, Naphthalene-2-sulfonic acid (2-{1-[1-(4-chloro-phenyl)-cyclobutyl]-1,2,3,4-tetrahydro-isoquinolin-7-yloxy}-ethyl)-amide hydrochloride] | ≤ 10000 nM |  | ≤ 10000 nM | 
O=S(=O)(NCCOc1ccc2c(c1)C(C1(c3ccc(Cl)cc3)CCC1)NCC2)c1cccnc1 (stereo not shown) [Example 10, Pyridine-3-sulfonic acid (2-{1-[1-(4-chloro-phenyl)-cyclobutyl]-1,2,3,4-tetrahydro-isoquinolin-7-yloxy}-ethyl)-amide hydrochloride] |  |  | ≤ 100 nM | ≤ 100 nM
O=S(=O)(NCCOc1ccc2c(c1)C(C1(c3ccc(Cl)cc3)CCC1)NCC2)C(F)(F)F (stereo not shown) [Example 11, N-(2-{1-[1-(4-Chloro-phenyl)-cyclobutyl]-1,2,3,4-tetrahydro-isoquinolin-7-yloxy}-ethyl)-C,C,C-trifluoro-methanesulfonamide] | ≤ 10000 nM |  | ≤ 10000 nM | 
CS(=O)(=O)NCCOc1cc2c(cc1F)CCNC2C1(c2ccc(Cl)cc2)CCC1 (stereo not shown) [Example 12, N-(2-{1-[1-(4-Chloro-phenyl)-cyclobutyl]-6-fluoro-1,2,3,4-tetrahydro-isoquinolin-7-yloxy}-ethyl)-methanesulfonamide hydrochloride] | ≤ 100 nM |  | ≤ 1000 nM | 
O=S(=O)(NCCOc1cc2c(cc1F)CCNC2C1(c2ccc(Cl)cc2)CCC1)c1ccccc1 (stereo not shown) [Example 13, N-(2-{1-[1-(4-Chloro-phenyl)-cyclobutyl]-6-fluoro-1,2,3,4-tetrahydro-isoquinolin-7-yloxy}-ethyl)-benzenesulfonamide hydrochloride] | ≤ 1000 nM |  | ≤ 1000 nM | 
O=S(=O)(NCCOc1cc2c(cc1F)CCNC2C1(c2ccc(Cl)cc2)CCC1)c1cccnc1 (stereo not shown) [Example 14, Pyridine-3-sulfonic acid (2-{1-[1-(4-chloro-phenyl)-cyclobutyl]-6-fluoro-1,2,3,4-tetrahydro-isoquinolin-7-yloxy}-ethyl)-amide hydrochloride] | ≤ 100 nM |  | ≤ 100 nM | 
CCCS(=O)(=O)NCCOc1cc2c(cc1F)CCNC2C1(c2ccc(Cl)cc2)CCC1 (stereo not shown) [Example 15, Propane-1-sulfonic acid (2-{1-[1-(4-chloro-phenyl)-cyclobutyl]-6-fluoro-1,2,3,4-tetrahydro-isoquinolin-7-yloxy}-ethyl)-amide hydrochloride] | ≤ 100 nM |  | ≤ 100 nM | 
CCCCS(=O)(=O)NCCOc1ccc2c(c1)C(C1(c3ccc(Cl)cc3)CCC1)NCC2 (stereo not shown) [Example 16, Butane-1-sulfonic acid (2-{1-[1-(4-chloro-phenyl)-cyclobutyl]-1,2,3,4-tetrahydro-isoquinolin-7-yloxy}-ethyl)-amide hydrochloride] | ≤ 100 nM |  | ≤ 100 nM | 
O=S(=O)(NCCOc1ccc2c(c1)C(C1(c3ccc(Cl)cc3)CCC1)NCC2)c1cccs1 (stereo not shown) [Example 17, Thiophene-2-sulfonic acid (2-{1-[1-(4-chloro-phenyl)-cyclobutyl]-1,2,3,4-tetrahydro-isoquinolin-7-yloxy}-ethyl)-amide hydrochloride] | ≤ 100 nM |  | ≤ 1000 nM | 
COc1ccccc1S(=O)(=O)NCCOc1ccc2c(c1)C(C1(c3ccc(Cl)cc3)CCC1)NCC2 (stereo not shown) [Example 18, N-(2-{1-[1-(4-Chloro-phenyl)-cyclobutyl]-1,2,3,4-tetrahydro-isoquinolin-7-yloxy}-ethyl)-2-methoxy-benzenesulfonamide hydrochloride] | ≤ 1000 nM |  | ≤ 10000 nM | 
COc1cccc(S(=O)(=O)NCCOc2ccc3c(c2)C(C2(c4ccc(Cl)cc4)CCC2)NCC3)c1 (stereo not shown) [Example 19, N-(2-{1-[1-(4-Chloro-phenyl)-cyclobutyl]-1,2,3,4-tetrahydro-isoquinolin-7-yloxy}-ethyl)-3-methoxy-benzenesulfonamide hydrochloride] | ≤ 10000 nM |  | ≤ 10000 nM | 
O=S(=O)(NCCOc1ccc2c(c1)C(C1(c3ccc(Cl)cc3)CCC1)NCC2)c1ccc(-c2ccon2)s1 (stereo not shown) [Example 22, 5-Isoxazol-3-yl-thiophene-2-sulfonic acid (2-{1-[1-(4-chloro-phenyl)-cyclobutyl]-1,2,3,4-tetrahydro-isoquinolin-7-yloxy}-ethyl)-amide hydrochloride] | ≤ 10000 nM |  | ≤ 100000 nM | 
N#Cc1ccccc1S(=O)(=O)NCCOc1ccc2c(c1)C(C1(c3ccc(Cl)cc3)CCC1)NCC2 (stereo not shown) [Example 23, N-(2-{1-[1-(4-Chloro-phenyl)-cyclobutyl]-1,2,3,4-tetrahydro-isoquinolin-7-yloxy}-ethyl)-2-cyano-benzenesulfonamide hydrochloride] | ≤ 10000 nM |  | ≤ 10000 nM | 
N#Cc1ccc(S(=O)(=O)NCCOc2ccc3c(c2)C(C2(c4ccc(Cl)cc4)CCC2)NCC3)cc1 (stereo not shown) [Example 24, N-(2-{1-[1-(4-Chloro-phenyl)-cyclobutyl]-1,2,3,4-tetrahydro-isoquinolin-7-yloxy}-ethyl)-4-cyano-benzenesulfonamide hydrochloride] | ≤ 1000 nM |  | ≤ 10000 nM | 
